Assay results reported in US11053251B2, “GPR35 modulators” (Prometheus Biosciences, Inc., priority 2019, dated 2021).

How the values were obtained:
Human GPR35 [1] = target: Human GPR35 (Homo sapiens, UniProt Q9HC97); assay: Beta-Arrestin Assay (Tango U2OS cells, LiveBLAzer-FRET B/G); assay type: cell-based; details: Human GPR35 expressing Tango U2OS cells, 5 hours treatment
Protocol: Human GPR35 expressing Tango U2OS cells were plated in 384-well format in clear bottom plates at a cell density of 10,000 cells/well and allowed to grow overnight. The next day, cells were treated with serially diluted test compounds for 5 hours. LiveBLAzer-FRET B/G (CCF4-AM) detection reagents were then added and cells were allowed to incubate for 2 hours before reading plates on a BioTek Cytation 5 plate reader. Zaprinast was used as a positive control for dose-response curves. In order to determine EC50 values, data were fit to a four-parameter dose-response curve.

Human GPR35 [2] = target: Human GPR35 (Homo sapiens, UniProt Q9HC97, S294R); assay: Alternative Beta-Arrestin Assay (JumpIn 294R Tango U2OS cells, LiveBLAzer-FRET B/G); assay type: cell-based; details: for EC50: Human GPR35 expressing JumpIn 294R Tango U2OS cells, 5 hours treatment
Procedure, shortened: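 U2OS Tango cells expressing human GPR35 S294R, plated overnight, exposed to serially diluted compounds for 5 hours. β-lactamase reporter read with LiveBLAzer-FRET B/G (CCF4-AM) after 2 h; EC50 from four-parameter fit, zaprinast as positive control.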

Human GPR35 (Homo sapiens, UniProt Q9HC97, S294R), sequence (Q9HC97 whole entry S294R): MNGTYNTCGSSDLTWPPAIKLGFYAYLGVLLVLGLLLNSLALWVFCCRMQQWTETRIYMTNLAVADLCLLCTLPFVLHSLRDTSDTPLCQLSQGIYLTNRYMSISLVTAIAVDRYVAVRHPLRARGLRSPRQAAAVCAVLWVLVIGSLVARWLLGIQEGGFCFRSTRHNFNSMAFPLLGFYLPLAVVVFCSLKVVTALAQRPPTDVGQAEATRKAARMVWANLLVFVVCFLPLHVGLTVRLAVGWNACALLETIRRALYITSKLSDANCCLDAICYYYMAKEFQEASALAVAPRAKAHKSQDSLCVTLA
Human GPR35 (Homo sapiens, UniProt Q9HC97), sequence (Q9HC97 whole entry): as the sequence (Q9HC97 whole entry S294R) above, with R294S counted along it

SMILES | EC50 (Human GPR35 [1]) [µM] | EC50 (Human GPR35 [2]) [µM] | % inhibition at 50 μM (Human GPR35 [2]; at 50 μM, Table 2) [% inhibition at]
CCOc1cc(C(=O)N2CCC[C@@H]2C(=O)O)ccc1-c1nc2[nH]nnc2c(=O)[nH]1 [Compound 159, (3-ethoxy-4-(7-oxo-6,7-dihydro-3H-[1,2,3]triazolo[4,5-d]pyrimidin-5-yl)benzoyl)-D-proline] | > 10 | 10 to 50 | –
CCOc1cc(C(=O)N2CCC[C@H]2C(=O)O)ccc1-c1nc2[nH]nnc2c(=O)[nH]1 [Compound 158, (3-ethoxy-4-(7-oxo-6,7-dihydro-3H-[1,2,3]triazolo[4,5-d]pyrimidin-5-yl)benzoyl)-L-proline] | > 10 | – | 48
O=c1[nH]c(-c2ccc(CO)cc2)nc2[nH]nnc12 [Compound 148, 5-(4-(hydroxymethyl)phenyl)-3,6-dihydro-7H-[1,2,3]triazolo[4,5-d]pyrimidin-7-one] | > 10 | > 50 | –
CCOc1cc(N2CC[C@H](C(=O)O)C2)ccc1-c1nc2[nH]nnc2c(=O)[nH]1 [Compound 166, (S)-1-(3-ethoxy-4-(7-oxo-6,7-dihydro-3H-[1,2,3]triazolo[4,5-d]pyrimidin-5-yl)phenyl)pyrrolidine-3-carboxylic acid] | ≤ 10 | ≤ 10 | –
O=c1[nH]c(-c2ccc(-c3ccccc3)cc2)nc2[nH]nnc12 [Compound 129, 5-([1,1′-biphenyl]-4-yl)-3,6-dihydro-7H-[1,2,3]triazolo[4,5-d]pyrimidin-7-one] | ≤ 10 | 10 to 50 | –
CCOc1cc(-c2ccc(C)c(C(=O)O)c2)ccc1-c1nc2[nH]nnc2c(=O)[nH]1 [Compound 155, 3′-ethoxy-4-methyl-4′-(7-oxo-6,7-dihydro-3H-[1,2,3]triazolo[4,5-d]pyrimidin-5-yl)-[1,1′-biphenyl]-3-carboxylic acid] | ≤ 10 | ≤ 10 | –
CCOc1cc(NCCCC(=O)O)ccc1-c1nc2[nH]nnc2c(=O)[nH]1 [Compound 164, 4-((3-ethoxy-4-(7-oxo-6,7-dihydro-3H-[1,2,3]triazolo[4,5-d]pyrimidin-5-yl)phenyl)amino)butanoic acid] | ≤ 10 | ≤ 10 | –
CCOc1cc(N2CC[C@@H](C(=O)O)C2)ccc1-c1nc2[nH]nnc2c(=O)[nH]1 [Compound 167, (R)-1-(3-ethoxy-4-(7-oxo-6,7-dihydro-3H-[1,2,3]triazolo[4,5-d]pyrimidin-5-yl)phenyl)pyrrolidine-3-carboxylic acid] | ≤ 10 | ≤ 10 | –
CCOc1cc(-c2nnn[nH]2)ccc1-c1nc2[nH]nnc2c(=O)[nH]1 [Compound 143, 5-(2-ethoxy-4-(1H-tetrazol-5-yl)phenyl)-3,6-dihydro-7H-[1,2,3]triazolo[4,5-d]pyrimidin-7-one] | ≤ 10 | ≤ 10 | –
CCOc1cc(C#N)ccc1-c1nc2[nH]nnc2c(=O)[nH]1 [Compound 142, 3-ethoxy-4-(7-oxo-6,7-dihydro-3H-[1,2,3]triazolo[4,5-d]pyrimidin-5-yl)benzonitrile] | ≤ 10 | ≤ 10 | –
CCOc1cc(CO)ccc1-c1nc2[nH]nnc2c(=O)[nH]1 [Compound 145, 5-(2-ethoxy-4-(hydroxymethyl)phenyl)-3,6-dihydro-7H-[1,2,3]triazolo[4,5-d]pyrimidin-7-one] | ≤ 10 | ≤ 10 | –
CCOc1cc(-c2noc(=O)[nH]2)ccc1-c1nc2[nH]nnc2c(=O)[nH]1 [Compound 150, 3-(3-ethoxy-4-(7-oxo-6,7-dihydro-3H-[1,2,3]triazolo[4,5-d]pyrimidin-5-yl)phenyl)-1,2,4-oxadiazol-5(4H)-one] | ≤ 10 | ≤ 10 | –
O=C(O)c1ccc(-c2nc3[nH]nnc3c(=O)[nH]2)cc1 [Compound 144, 4-(7-oxo-6,7-dihydro-3H-[1,2,3]triazolo[4,5-d]pyrimidin-5-yl)benzoic acid] | ≤ 10 | ≤ 10 | –

Other lines, results leading:

EC50 (Human GPR35 [1]) [µM] | EC50 (Human GPR35 [2]) [µM] | % inhibition at 50 μM (Human GPR35 [2]; at 50 μM, Table 2) [% inhibition at] | SMILES
≤ 10 | ≤ 10 | – | CCOc1cc(N)ccc1-c1nc2[nH]nnc2c(=O)[nH]1 [Compound 137, 5-(4-amino-2-ethoxyphenyl)-3,6-dihydro-7H-[1,2,3]triazolo[4,5-d]pyrimidin-7-one]
≤ 10 | 10 to 50 | – | CCOc1cc(C(=O)NC2CCCC2)ccc1-c1nc2nn[nH]c2c(=O)[nH]1 [Compound 136, N-Cyclopentyl-3-ethoxy-4-(7-oxo-6,7-dihydro-3H-[1,2,3]triazolo[4,5-d]pyrimidin-5-yl)benzamide]
≤ 10 | ≤ 10 | – | CCOc1cc(-c2ccc(C(=O)OC)nc2)ccc1-c1nc2[nH]nnc2c(=O)[nH]1 [Compound 124, Methyl 5-(3-ethoxy-4-(7-oxo-6,7-dihydro-3H-[1,2,3]triazolo[4,5-d]pyrimidin-5-yl)phenyl)picolinate]
≤ 10 | ≤ 10 | – | CCOc1cc(Cc2ccc(C(=O)O)cc2)ccc1-c1nc2[nH]nnc2c(=O)[nH]1 [Compound 177, 4-(3-ethoxy-4-(7-oxo-6,7-dihydro-3H-[1,2,3]triazolo[4,5-d]pyrimidin-5-yl)benzyl)benzoic acid]
≤ 10 | ≤ 10 | – | CCOc1cc(-c2cccc(OCC(=O)O)c2)ccc1-c1nc2[nH]nnc2c(=O)[nH]1 [Compound 121, 2-((3′-Ethoxy-4′-(7-oxo-6,7-dihydro-3H-[1,2,3]triazolo[4,5-d]pyrimidin-5-yl)-[1,1′-biphenyl]-3-yl)oxy)acetic acid]
≤ 10 | ≤ 10 | – | CCOc1cc(-c2cccc(C(=O)OC)c2)ccc1-c1nc2[nH]nnc2c(=O)[nH]1 [Compound 107, Methyl 3′-ethoxy-4′-(7-oxo-6,7-dihydro-3H-[1,2,3]triazolo[4,5-d]pyrimidin-5-yl)-[1,1′-biphenyl]-3-carboxylate]
≤ 10 | ≤ 10 | – | CCOc1cc(C(=O)Nc2cccnc2)ccc1-c1nc2[nH]nnc2c(=O)[nH]1 [Compound 141, 3-ethoxy-4-(7-oxo-6,7-dihydro-3H-[1,2,3]triazolo[4,5-d]pyrimidin-5-yl)-N-(pyridin-3-yl)benzamide]
≤ 10 | ≤ 10 | – | CCOc1cc(-c2cncc(C(=O)OC)c2)ccc1-c1nc2[nH]nnc2c(=O)[nH]1 [Compound 112, Methyl 5-(3-ethoxy-4-(7-oxo-6,7-dihydro-3H-[1,2,3]triazolo[4,5-d]pyrimidin-5-yl)phenyl)nicotinate]
≤ 10 | ≤ 10 | – | CCOc1cc(C2CC2)ccc1-c1nc2[nH]nnc2c(=O)[nH]1 [Compound 130, 5-(4-cyclopropyl-2-ethoxyphenyl)-3,6-dihydro-7H-[1,2,3]triazolo[4,5-d]pyrimidin-7-one]
≤ 10 | ≤ 10 | – | CCOc1cc(C(=O)N2CC[C@H](C(=O)O)C2)ccc1-c1nc2[nH]nnc2c(=O)[nH]1 [Compound 160, (S)-1-(3-ethoxy-4-(7-oxo-6,7-dihydro-3H-[1,2,3]triazolo[4,5-d]pyrimidin-5-yl)benzoyl)pyrrolidine-3-carboxylic acid]
≤ 10 | ≤ 10 | – | CCOc1cc(CC(=O)O)ccc1-c1nc2[nH]nnc2c(=O)[nH]1 [Compound 146, 2-(3-ethoxy-4-(7-oxo-6,7-dihydro-3H-[1,2,3]triazolo[4,5-d]pyrimidin-5-yl)phenyl)acetic acid]
≤ 10 | ≤ 10 | – | CCOc1cc(N2CCCC(C(=O)O)C2)ccc1-c1nc2[nH]nnc2c(=O)[nH]1 (stereo not drawn) [Compound 173, 1-(3-ethoxy-4-(7-oxo-6,7-dihydro-3H-[1,2,3]triazolo[4,5-d]pyrimidin-5-yl)phenyl)piperidine-3-carboxylic acid]
≤ 10 | 10 to 50 | – | CCOc1cc(N2CCC[C@H]2C(=O)O)ccc1-c1nc2[nH]nnc2c(=O)[nH]1 [Compound 162, (3-ethoxy-4-(7-oxo-6,7-dihydro-3H-[1,2,3]triazolo[4,5-d]pyrimidin-5-yl)phenyl)-L-proline]
≤ 10 | ≤ 10 | – | CCOc1cc(-c2cccnc2)ccc1-c1nc2[nH]nnc2c(=O)[nH]1 [Compound 102, 5-(2-Ethoxy-4-(pyridin-3-yl)phenyl)-3,6-dihydro-7H-[1,2,3]triazolo[4,5-d]pyrimidin-7-one]
≤ 10 | ≤ 10 | – | CCOc1cc(-c2ccc(O)c(C(=O)O)c2)ccc1-c1nc2[nH]nnc2c(=O)[nH]1 [Compound 179, 3′-ethoxy-4-hydroxy-4′-(7-oxo-6,7-dihydro-3H-[1,2,3]triazolo[4,5-d]pyrimidin-5-yl)-[1,1′-biphenyl]-3-carboxylic acid]
≤ 10 | ≤ 10 | – | CCOc1cc(C(=O)O)ccc1-c1nc2[nH]nnc2c(=O)[nH]1 [Compound 132, 3-Ethoxy-4-(7-oxo-6,7-dihydro-3H-[1,2,3]triazolo[4,5-d]pyrimidin-5-yl)benzoic acid]
≤ 10 | ≤ 10 | – | CCOc1cc(-c2ccc(C(=O)O)cc2)ccc1-c1nc2[nH]nnc2c(=O)[nH]1 [Compound 111, 3′-Ethoxy-4′-(7-oxo-6,7-dihydro-3H-[1,2,3]triazolo[4,5-d]pyrimidin-5-yl)-[1,1′-biphenyl]-4-carboxylic acid]
